From article PMC12203311, “Design, synthesis, in silico and in vitro evaluation of pyrrole–indole hybrids as dual tubulin and aromatase inhibitors with potent anticancer activities” (RSC Advances, 2025)

Assays:
HL-60 (TB) = assay: NCI60 five-dose screen; type: cell-based; conditions: Homo sapiens, leukemia; for CC50: read-out: LC50 (the source's name)
A549/ATCC = assay: NCI60 five-dose screen; type: cell-based; conditions: Homo sapiens, NSC lung cancer; for CC50: read-out: LC50 (the source's name)
NCI-H226 = assay: NCI60 five-dose screen; type: cell-based; conditions: Homo sapiens, NCI-H226, NSC lung cancer; for CC50: read-out: LC50 (the source's name)
NCI-H23 = assay: NCI60 five-dose screen; type: cell-based; conditions: Homo sapiens, NCI-H23, NSC lung cancer; for CC50: read-out: LC50 (the source's name)
COLO 205 = assay: NCI60 five-dose screen; type: cell-based, human; conditions: Homo sapiens; for GI50: COLO 205, colon cancer
HCC-2998 = assay: NCI60 five-dose screen; type: cell-based; conditions: Homo sapiens, HCC-2998, colon cancer; for CC50: read-out: LC50 (the source's name)
SF-268 = assay: NCI60 five-dose screen; type: cell-based; conditions: Homo sapiens, SF-268, CNS cancer; for CC50: read-out: LC50 (the source's name)
SNB-19 = assay: NCI60 five-dose screen; type: cell-based; conditions: Homo sapiens, SNB-19, CNS cancer; for CC50: read-out: LC50 (the source's name)
SNB-75 = assay: NCI60 five-dose screen; type: cell-based; conditions: Homo sapiens, SNB-75, CNS cancer; for CC50: read-out: LC50 (the source's name)
LOX IMVI = assay: NCI60 five-dose screen; type: cell-based; conditions: Homo sapiens, melanoma; for CC50: read-out: LC50 (the source's name)
MALME-3M = assay: NCI60 five-dose screen; type: cell-based; conditions: Homo sapiens, melanoma; for CC50: read-out: LC50 (the source's name)
MDA-MB-435 = assay: NCI60 five-dose screen; type: cell-based, human; conditions: Homo sapiens; for CC50: MDA-MB-435, MDA-MB-435, melanoma, read-out: LC50 (the source's name); for GI50: MDA-MB-435, melanoma
SK-MEL-5 = assay: NCI60 five-dose screen; type: cell-based, human; conditions: Homo sapiens; for CC50: SK-MEL-5, SK-MEL-5, melanoma, read-out: LC50 (the source's name); for GI50: SK-MEL-5, melanoma
UACC-62 = assay: NCI60 five-dose screen; type: cell-based; conditions: Homo sapiens, UACC-62, melanoma; for CC50: read-out: LC50 (the source's name)
OVCAR-3 = assay: NCI60 five-dose screen; type: cell-based; conditions: Homo sapiens, OVCAR-3, ovarian cancer; for CC50: read-out: LC50 (the source's name)
OVCAR-5 = assay: NCI60 five-dose screen; type: cell-based; conditions: Homo sapiens, OVCAR-5, ovarian cancer; for CC50: read-out: LC50 (the source's name)
SK-OV-3 = assay: NCI60 five-dose screen; type: cell-based; conditions: Homo sapiens, SK-OV-3, ovarian cancer; for CC50: read-out: LC50 (the source's name)
786-0 = assay: NCI60 five-dose screen; type: cell-based; conditions: Homo sapiens, 786-0, renal cancer; for CC50: read-out: LC50 (the source's name)
CAKI-1 = assay: NCI60 five-dose screen; type: cell-based; conditions: Homo sapiens, CAKI-1, renal cancer; for CC50: read-out: LC50 (the source's name)
TK-10 = assay: NCI60 five-dose screen; type: cell-based; conditions: Homo sapiens, TK-10, renal cancer; for CC50: read-out: LC50 (the source's name)
DU-145 = assay: NCI60 five-dose screen; type: cell-based; conditions: Homo sapiens, DU-145, prostate cancer; for CC50: read-out: LC50 (the source's name)
HS 578T = assay: NCI60 five-dose screen; type: cell-based; conditions: Homo sapiens, breast cancer; for CC50: read-out: LC50 (the source's name)
BT-549 = assay: NCI60 five-dose screen; type: cell-based; conditions: Homo sapiens, BT-549, breast cancer; for CC50: read-out: LC50 (the source's name)
MDA-MB-468 = assay: NCI60 five-dose screen; type: cell-based; conditions: Homo sapiens, MDA-MB-468, breast cancer; for CC50: read-out: LC50 (the source's name)
Human CYP19 (aromatase) = molecular target: T1, Human CYP19 (aromatase) (Homo sapiens, UniProt P11511); assay: Aromatase inhibition assay (DBF fluorometric substrate); type: biochemical; conditions: active defined as IC50 < 12.5 µM
T1 construct: purchased GENTEST, Woburn, MA 456260; host or cells: baculovirus/insect cells
T1 sequence (P11511 1-503): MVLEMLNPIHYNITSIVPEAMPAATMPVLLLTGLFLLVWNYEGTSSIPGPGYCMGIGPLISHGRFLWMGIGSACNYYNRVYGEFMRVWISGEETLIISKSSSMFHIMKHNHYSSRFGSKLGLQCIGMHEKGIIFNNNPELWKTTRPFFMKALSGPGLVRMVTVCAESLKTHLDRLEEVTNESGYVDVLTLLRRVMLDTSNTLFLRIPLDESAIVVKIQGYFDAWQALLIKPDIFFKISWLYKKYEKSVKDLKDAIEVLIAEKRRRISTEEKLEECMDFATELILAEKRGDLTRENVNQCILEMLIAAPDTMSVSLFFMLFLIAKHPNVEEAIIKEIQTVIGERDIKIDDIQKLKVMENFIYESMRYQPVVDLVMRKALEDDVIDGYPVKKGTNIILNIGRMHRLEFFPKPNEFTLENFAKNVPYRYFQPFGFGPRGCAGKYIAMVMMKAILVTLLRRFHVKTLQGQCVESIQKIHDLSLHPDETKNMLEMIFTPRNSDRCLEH
Summary of the method: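 Insect-cell-expressed human CYP19 Supersomes with oxidoreductase turned over DBF for 30 min at 37 °C after a 10 min 37 °C pre-incubation with cofactor. NaOH quench; product measured by fluorescence, excitation 490 nm, emission 530 nm.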

CCc1c[nH]c(/C=N/NC(=O)c2[nH]c3ccc(Br)cc3c2-c2ccccc2)c1 [Derivative 3t, (E)-5-Bromo-N′-((4-ethyl-1H-pyrrol-2-yl)methylene)-3-phenyl-1H-indole-2-carbohydrazide]
GI50 (HL-60 (TB)): 0.237 µM | CC50 (HL-60 (TB)): 91.9 µM | GI50 (A549/ATCC): 0.397 µM | CC50 (A549/ATCC): 38.8 µM | GI50 (NCI-H226): 0.33 µM | CC50 (NCI-H226): 28 µM | GI50 (NCI-H23): 0.408 µM | CC50 (NCI-H23): 37.4 µM | GI50 (COLO 205): 0.207 µM | GI50 (HCC-2998): 0.342 µM | CC50 (HCC-2998): 30.4 µM | GI50 (SF-268): 0.861 µM | CC50 (SF-268): 51.9 µM | GI50 (SNB-19): 0.396 µM | CC50 (SNB-19): 41.3 µM | GI50 (SNB-75): 0.44 µM | CC50 (SNB-75): 37.8 µM | GI50 (LOX IMVI): 0.427 µM | CC50 (LOX IMVI): 8.27 µM | GI50 (MALME-3M): 1.72 µM | CC50 (MALME-3M): 48 µM | CC50 (MDA-MB-435): 38.7 µM | GI50 (MDA-MB-435): 0.23 µM | CC50 (SK-MEL-5): 6.96 µM | GI50 (SK-MEL-5): 0.279 µM | GI50 (UACC-62): 0.442 µM | CC50 (UACC-62): 32.1 µM | GI50 (OVCAR-3): 0.316 µM | CC50 (OVCAR-3): 41.7 µM | GI50 (OVCAR-5): 0.337 µM | CC50 (OVCAR-5): 37.2 µM | GI50 (SK-OV-3): 0.922 µM | CC50 (SK-OV-3): 35.4 µM | GI50 (786-0): 0.646 µM | CC50 (786-0): 38.5 µM | GI50 (CAKI-1): 1.05 µM | CC50 (CAKI-1): 34.4 µM | GI50 (TK-10): 2.83 µM | CC50 (TK-10): 42.1 µM | GI50 (DU-145): 0.38 µM | CC50 (DU-145): 39.5 µM | GI50 (HS 578T): 0.3 µM | CC50 (HS 578T): 87.3 µM | GI50 (BT-549): 0.39 µM | CC50 (BT-549): 23.9 µM | GI50 (MDA-MB-468): 0.263 µM | CC50 (MDA-MB-468): 9.22 µM | IC50 (Human CYP19 (aromatase)): 4.7 ± 0.5 µM

CCc1cc[nH]c1/C=N/NC(=O)c1[nH]c2ccc(Br)cc2c1-c1ccccc1 [Derivative 3u, (E)-5-Bromo-N′-((3-ethyl-1H-pyrrol-2-yl)methylene)-3-phenyl-1H-indole-2-carbohydrazide]
GI50 (HL-60 (TB)): 2.03 µM | CC50 (HL-60 (TB)): 24.3 µM | GI50 (A549/ATCC): 2 µM | CC50 (A549/ATCC): 41.5 µM | GI50 (NCI-H226): 1.97 µM | CC50 (NCI-H226): 37.7 µM | GI50 (NCI-H23): 2.66 µM | CC50 (NCI-H23): 38.3 µM | CC50 (COLO 205; COLO 205, COLO 205, colon cancer, read-out: LC50 (the source's name)): 41.3 µM | GI50 (COLO 205): 2.96 µM | GI50 (HCC-2998): 4.11 µM | CC50 (HCC-2998): 42.4 µM | GI50 (SF-268): 2.86 µM | CC50 (SF-268): 42.7 µM | GI50 (SNB-19): 4.5 µM | CC50 (SNB-19): 42.2 µM | GI50 (SNB-75): 4.94 µM | CC50 (SNB-75): 43.4 µM | GI50 (LOX IMVI): 2.42 µM | CC50 (LOX IMVI): 32.3 µM | GI50 (MALME-3M): 3.5 µM | CC50 (MALME-3M): 40 µM | CC50 (MDA-MB-435): 41.6 µM | GI50 (MDA-MB-435): 4.12 µM | CC50 (SK-MEL-5): 27.2 µM | GI50 (SK-MEL-5): 2.54 µM | GI50 (UACC-62): 2.48 µM | CC50 (UACC-62): 30.8 µM | GI50 (OVCAR-3): 3.2 µM | CC50 (OVCAR-3): 44 µM | GI50 (OVCAR-5): 6.77 µM | CC50 (OVCAR-5): 45.4 µM | GI50 (SK-OV-3): 2.59 µM | CC50 (SK-OV-3): 42.4 µM | GI50 (786-0): 3.51 µM | CC50 (786-0): 44.3 µM | GI50 (CAKI-1): 6.04 µM | CC50 (CAKI-1): 45.3 µM | GI50 (TK-10): 5.05 µM | CC50 (TK-10): 41.6 µM | GI50 (DU-145): 4.3 µM | CC50 (DU-145): 42.3 µM | GI50 (HS 578T): 3.6 µM | CC50 (HS 578T): 61.8 µM | GI50 (BT-549): 2.7 µM | CC50 (BT-549): 34.2 µM | GI50 (MDA-MB-468): 2.72 µM | CC50 (MDA-MB-468): 32.1 µM | IC50 (Human CYP19 (aromatase)): 9.6 ± 1 µM
